The results in this text go back to US12590088B2, “Jak inhibitor compound and pharmaceutical composition including the same” (KOREA PHARMA CO., LTD., priority 2019, dated 2026).

Each structure is given as a SMILES string.

Test [1] concerns the target T1, JAK3 (Homo sapiens, UniProt P52333).
T1 sequence (P52333 1-1124): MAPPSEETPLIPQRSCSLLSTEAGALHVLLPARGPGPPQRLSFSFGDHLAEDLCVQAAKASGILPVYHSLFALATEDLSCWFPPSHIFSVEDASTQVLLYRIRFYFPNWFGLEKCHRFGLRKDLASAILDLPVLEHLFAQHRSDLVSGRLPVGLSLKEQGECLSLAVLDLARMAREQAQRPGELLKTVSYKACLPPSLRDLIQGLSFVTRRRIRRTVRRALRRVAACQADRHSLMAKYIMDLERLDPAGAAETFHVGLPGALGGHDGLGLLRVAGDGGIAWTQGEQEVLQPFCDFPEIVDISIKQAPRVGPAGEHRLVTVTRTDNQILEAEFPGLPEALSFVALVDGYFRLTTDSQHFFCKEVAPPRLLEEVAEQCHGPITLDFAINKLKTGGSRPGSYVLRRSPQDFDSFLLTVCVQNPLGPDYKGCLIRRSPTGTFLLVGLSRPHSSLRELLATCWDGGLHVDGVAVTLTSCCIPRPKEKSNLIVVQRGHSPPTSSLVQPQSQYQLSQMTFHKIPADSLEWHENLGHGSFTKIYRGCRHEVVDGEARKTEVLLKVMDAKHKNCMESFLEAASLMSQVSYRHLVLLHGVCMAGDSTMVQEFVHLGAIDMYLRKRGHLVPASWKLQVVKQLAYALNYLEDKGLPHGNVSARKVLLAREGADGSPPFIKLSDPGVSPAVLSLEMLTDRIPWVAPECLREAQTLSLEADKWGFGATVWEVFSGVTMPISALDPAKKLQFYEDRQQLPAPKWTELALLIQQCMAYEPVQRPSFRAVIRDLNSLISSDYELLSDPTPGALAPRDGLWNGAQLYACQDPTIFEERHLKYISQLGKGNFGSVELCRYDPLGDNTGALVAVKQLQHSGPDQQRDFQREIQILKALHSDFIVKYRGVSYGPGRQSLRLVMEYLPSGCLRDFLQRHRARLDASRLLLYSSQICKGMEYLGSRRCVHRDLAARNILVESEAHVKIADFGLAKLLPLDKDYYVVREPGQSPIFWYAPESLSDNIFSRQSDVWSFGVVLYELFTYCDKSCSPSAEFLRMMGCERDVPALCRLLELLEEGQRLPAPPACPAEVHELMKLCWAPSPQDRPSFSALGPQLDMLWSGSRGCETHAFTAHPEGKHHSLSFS
Nature of the test: Cell-based assay on Janus kinase inhibitors, JAK3 (GI50).

For another test, the target named is JAK1 (Homo sapiens, UniProt P23458). The experiment in a line: JAK1 IC50 measurement. The class given is biochemical.
Another test deals with JAK2 (Homo sapiens, UniProt O60674). The experiment in a line: JAK2 IC50 measurement. Type of test: biochemical.
Test [2] deals with T1, JAK3. Nature of the test: JAK3 IC50 measurement. The class given is biochemical.
Another test has as its target TYK2 (Homo sapiens, UniProt P29597). Nature of the test: TYK2 IC50 measurement. The class given is biochemical.

Chain of TYK2 (P29597 whole entry): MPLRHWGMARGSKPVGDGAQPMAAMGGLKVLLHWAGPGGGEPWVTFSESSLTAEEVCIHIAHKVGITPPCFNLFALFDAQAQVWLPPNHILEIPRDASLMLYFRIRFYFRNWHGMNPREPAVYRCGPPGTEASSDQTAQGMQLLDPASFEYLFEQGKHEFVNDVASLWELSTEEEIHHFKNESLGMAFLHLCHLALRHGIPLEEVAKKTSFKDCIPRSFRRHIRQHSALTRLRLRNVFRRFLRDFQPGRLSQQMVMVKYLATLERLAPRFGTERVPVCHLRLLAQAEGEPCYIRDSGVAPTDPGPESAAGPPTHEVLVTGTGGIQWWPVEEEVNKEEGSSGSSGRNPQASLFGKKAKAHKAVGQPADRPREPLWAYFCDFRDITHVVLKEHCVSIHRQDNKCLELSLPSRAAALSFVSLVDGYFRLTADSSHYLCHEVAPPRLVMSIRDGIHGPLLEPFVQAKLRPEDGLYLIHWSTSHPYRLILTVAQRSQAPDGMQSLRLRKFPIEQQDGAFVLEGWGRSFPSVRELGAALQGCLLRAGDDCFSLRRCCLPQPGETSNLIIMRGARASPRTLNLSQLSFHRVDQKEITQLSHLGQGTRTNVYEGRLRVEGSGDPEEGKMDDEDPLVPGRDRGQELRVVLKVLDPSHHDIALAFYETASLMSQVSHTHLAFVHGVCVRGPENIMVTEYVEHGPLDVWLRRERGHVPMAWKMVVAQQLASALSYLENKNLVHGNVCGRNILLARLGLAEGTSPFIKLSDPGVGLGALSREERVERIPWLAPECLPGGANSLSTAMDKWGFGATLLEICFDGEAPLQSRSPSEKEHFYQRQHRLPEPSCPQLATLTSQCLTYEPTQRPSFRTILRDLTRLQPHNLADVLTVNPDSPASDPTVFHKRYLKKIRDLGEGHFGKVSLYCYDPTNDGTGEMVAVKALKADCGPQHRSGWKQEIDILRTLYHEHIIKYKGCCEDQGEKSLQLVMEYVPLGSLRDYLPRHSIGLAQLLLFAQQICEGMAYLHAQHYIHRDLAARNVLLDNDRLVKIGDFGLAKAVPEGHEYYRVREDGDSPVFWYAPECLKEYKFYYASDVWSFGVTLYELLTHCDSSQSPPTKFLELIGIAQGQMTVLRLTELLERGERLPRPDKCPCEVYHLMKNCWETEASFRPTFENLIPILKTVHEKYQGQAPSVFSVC
Chain of JAK1 (P23458 whole entry): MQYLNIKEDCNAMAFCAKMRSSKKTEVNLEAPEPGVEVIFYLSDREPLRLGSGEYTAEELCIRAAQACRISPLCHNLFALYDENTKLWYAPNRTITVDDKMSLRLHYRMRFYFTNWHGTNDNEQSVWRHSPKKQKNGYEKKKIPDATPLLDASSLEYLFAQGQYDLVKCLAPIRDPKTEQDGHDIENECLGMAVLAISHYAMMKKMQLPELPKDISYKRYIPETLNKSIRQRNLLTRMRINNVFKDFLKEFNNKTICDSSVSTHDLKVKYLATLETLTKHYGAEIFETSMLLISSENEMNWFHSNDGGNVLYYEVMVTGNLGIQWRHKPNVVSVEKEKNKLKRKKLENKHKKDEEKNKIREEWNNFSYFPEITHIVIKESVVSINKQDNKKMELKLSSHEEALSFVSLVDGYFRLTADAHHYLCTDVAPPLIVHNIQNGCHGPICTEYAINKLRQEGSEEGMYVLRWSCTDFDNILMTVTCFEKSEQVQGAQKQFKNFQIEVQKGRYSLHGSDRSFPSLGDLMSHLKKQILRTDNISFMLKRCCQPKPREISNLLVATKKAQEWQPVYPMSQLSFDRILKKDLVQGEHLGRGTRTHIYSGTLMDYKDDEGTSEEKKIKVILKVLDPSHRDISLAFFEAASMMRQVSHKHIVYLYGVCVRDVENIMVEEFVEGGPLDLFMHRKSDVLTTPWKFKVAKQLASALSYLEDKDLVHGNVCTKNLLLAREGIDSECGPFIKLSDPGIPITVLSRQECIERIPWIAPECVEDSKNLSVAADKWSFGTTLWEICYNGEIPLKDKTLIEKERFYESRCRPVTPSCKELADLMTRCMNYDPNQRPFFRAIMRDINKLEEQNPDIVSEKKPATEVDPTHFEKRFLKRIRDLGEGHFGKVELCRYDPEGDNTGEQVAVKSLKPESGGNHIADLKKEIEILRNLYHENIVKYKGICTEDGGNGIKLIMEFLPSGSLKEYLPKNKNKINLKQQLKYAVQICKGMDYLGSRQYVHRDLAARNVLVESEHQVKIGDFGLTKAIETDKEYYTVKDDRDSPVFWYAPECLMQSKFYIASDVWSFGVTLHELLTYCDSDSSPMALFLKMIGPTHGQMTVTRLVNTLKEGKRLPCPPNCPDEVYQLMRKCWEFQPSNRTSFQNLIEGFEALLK
Chain of JAK2 (O60674 whole entry): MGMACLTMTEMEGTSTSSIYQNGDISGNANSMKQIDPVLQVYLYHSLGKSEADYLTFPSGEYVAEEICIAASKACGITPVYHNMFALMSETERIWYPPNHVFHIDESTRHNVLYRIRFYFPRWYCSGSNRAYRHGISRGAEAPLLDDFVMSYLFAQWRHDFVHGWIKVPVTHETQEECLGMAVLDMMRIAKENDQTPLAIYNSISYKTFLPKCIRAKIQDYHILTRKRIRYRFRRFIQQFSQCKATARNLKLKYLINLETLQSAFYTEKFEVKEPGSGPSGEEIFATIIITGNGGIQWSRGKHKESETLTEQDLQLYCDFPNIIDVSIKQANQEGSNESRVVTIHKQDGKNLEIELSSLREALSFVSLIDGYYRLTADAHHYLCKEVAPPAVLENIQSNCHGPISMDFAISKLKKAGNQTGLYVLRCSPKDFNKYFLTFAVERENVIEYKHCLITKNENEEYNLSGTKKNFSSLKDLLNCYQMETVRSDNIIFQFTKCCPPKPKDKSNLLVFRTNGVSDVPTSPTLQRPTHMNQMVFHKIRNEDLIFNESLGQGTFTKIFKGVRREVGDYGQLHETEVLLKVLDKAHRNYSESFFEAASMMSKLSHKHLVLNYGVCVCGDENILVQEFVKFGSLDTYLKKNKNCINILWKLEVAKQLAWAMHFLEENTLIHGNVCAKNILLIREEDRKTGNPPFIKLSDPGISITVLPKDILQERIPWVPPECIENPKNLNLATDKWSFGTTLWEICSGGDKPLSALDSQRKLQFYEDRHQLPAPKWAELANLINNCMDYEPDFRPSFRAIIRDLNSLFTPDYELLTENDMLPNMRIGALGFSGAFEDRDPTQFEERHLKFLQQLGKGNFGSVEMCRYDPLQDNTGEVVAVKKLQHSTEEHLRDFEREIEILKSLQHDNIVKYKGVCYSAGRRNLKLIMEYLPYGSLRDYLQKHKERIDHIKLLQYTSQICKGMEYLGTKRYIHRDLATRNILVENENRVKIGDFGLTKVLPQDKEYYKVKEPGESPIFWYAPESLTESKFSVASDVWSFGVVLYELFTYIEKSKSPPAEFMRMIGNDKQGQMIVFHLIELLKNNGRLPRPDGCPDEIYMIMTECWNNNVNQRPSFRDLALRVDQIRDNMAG

For orientation: GI50 means the concentration at which growth is held to half of that of the control. `CNC(=O)c1cnc2[nH]ccc2c1N[C@@H]1CCN(Cc2cccc(Cl)c2)[C@@H](C)C1` (relative stereo) [Compound 20b, 4-((trans-1-(3-Chlorobenzyl)-2-methylpiperidin-4-yl)amino)-N-methyl-11H-pyrrolo[2,3-b]pyridine-5-carboxamide] gave a concentration for 50% growth inhibition (GI50) on JAK3 [1] of 8.24 µM.
In general, IC50 refers to the point on the concentration scale where inhibition reaches its midpoint. Take `CNC(=O)c1cnc2[nH]ccc2c1NC1CC(NCc2ccccc2)C1` (stereo not drawn) [Compound 16a, 4-((3-(Benzylamino)cyclobutyl)amino)-N-methyl-1H-pyrrolo[2,3-b]pyridine-5-carboxamide]: the IC50 on JAK1 turned out to be 0.13 µM.
Still for that read-out and setting: the result for `CNC(=O)c1cnc2[nH]ccc2c1NC1CC(NCc2cccc(Cl)c2)C1` (stereo not drawn) [Compound 16b, 4-((3-((3-Chlorobenzyl)amino)cyclobutyl)amino)-N-methyl-1H-pyrrolo[2,3-b]pyridine-5-carboxamide] reads 0.016 µM; that for `CNC(=O)c1cnc2[nH]ccc2c1NC1CC(NCc2ccc(Cl)cc2)C1` (stereo not drawn) [Compound 16c, 4-((3-((4-Chlorobenzyl)amino)cyclobutyl)amino)-N-methyl-1H-pyrrolo[2,3-b]pyridine-5-carboxamide], 0.0138 µM.
As for `CNC(=O)c1cnc2[nH]ccc2c1NC1CC2CCC(C1)N2Cc1cccc(C#N)c1` (stereo not drawn) [Compound 17f, 4-((8-(3-Cyanobenzyl)-8-azabicyclo[3.2.1]octan-3-yl)amino)-N-methyl-1H-pyrrolo[2,3-b]pyridine-5-carboxamide], the IC50 came out at 0.0588 µM on JAK2, 0.0447 µM at JAK3 [2] and 0.0922 µM on TYK2.
Turning to `CNC(=O)c1cnc2[nH]ccc2c1N[C@H]1CCCN(Cc2cccc(Cl)c2)C1` [Compound 18a, (S)-4-((1-(3-Chlorobenzyl)piperidin-3-yl)amino)-N-methyl-1H-pyrrolo[2,3-b]pyridine-5-carboxamide], the IC50 against JAK1 stood at 1.87 µM.
As for `CNC(=O)c1cnc2[nH]ccc2c1N[C@H]1CCCN(Cc2cccc(OC)c2)C1` [Compound 18b, (S)-4-((1-(3-Methoxybenzyl)piperidin-3-yl)amino)-N-methyl-1H-pyrrolo[2,3-b]pyridine-5-carboxamide], the half-inhibitory concentration (IC50) was found to be 0.697 µM on JAK1, 0.533 µM on JAK2, 3.43 µM against JAK3 [2] and 1.79 µM against TYK2. Also, the “Selectivity for JAK1 JAK2/JAK1” value at JAK2 was determined as 0.764. At JAK3 [2] (ratio of IC50 values), the “Selectivity for JAK1 JAK3/JAK1” value turned out to be 4.92. Also, the “Selectivity for JAK1 TYK2/JAK1” value on TYK2 was 2.56.
